Literature values, collected in patent US20250222110A1, “METHODS AND COMPOSITIONS FOR TREATMENT OF AGE-RELATED CATARACTS” (LIVIONEX, Inc., priority 2024, published 2025).

Settings: 79° F.

water solubility: 34 % w/v
Compound: CS(C)(=O)=O [MSM, methylsulfonylmethane]
